For one data set, the species on record is Homo sapiens. The note with it: in vivo.
A further data set deals with Hepatocyte. The note with it: human, hepatocytes.
A short description of data set [1]: in vitro. The note with it: human.
A short description of data set [2]: in vitro. The conditions noted are these: blood.
A short description of data set [3]: in vitro. The conditions noted are these: human, hepatocytes.
Description: (§1) Intrinsic clearance in human using well stirred liver model by LC-MS/MS method
The conditions of data set [4]: human, hepatocytes.
Description: as §1
A short description of data set [5]: in vitro. The conditions noted are these: human. This is another data set of the same source.
Description: Intrinsic clearance in cryopreserved human HepaRG cells assessed per 10^6 cells by LC-MS/MS method
Data set [6] in a line: in vitro. The note with it: human. The source holds these as a separate data set.
For data set [7] the following is noted: octanol/water.
Description: Lipophilicity, log P of the compound

Description for Homo sapiens: Hepatic clearance in human

Regarding `Cc1cc(=O)n(-c2ccccc2)n1C` [ANTIPYRINE], the figures for the CLH in the data set listed under Homo sapiens and with Hepatocyte were 0.57 mL/min/kg and 0.083 uL/min/10^6cells, respectively. In addition, the unbound share (fraction unbound) (usually free concentration divided by total concentration) is 0.988 in the data set “in vitro [1]” (human hepatocytes) and 0.97 in the data set “in vitro [2]”. Further, the CLint scaled (as a rule, a measure of how fast metabolising enzymes remove a compound, apart from limits set by blood flow) in “in vitro [3]” amounted to 0.604 mL/min/kg.

The compound `CN(C)CCCN1c2ccccc2Sc2ccc(Cl)cc21` [CHLORPROMAZINE] returned a CLH in the data set filed under Homo sapiens of 8.6 mL/min/kg. In data set [4], the CL is 278 mL/min/kg. Besides, the fraction unbound in the data set “in vitro [1]” (hepatocytes) came out at 0.302; in “in vitro [2]” it was 0.053. Besides, the hepatocyte CLint (commonly the rate of metabolic loss divided by the concentration) in the data set “in vitro [5]” (heparg) amounted to 252 µL/min/1e6 cells; in “in vitro [6]” (hepatocytes), 82.5 µL/min/1e6 cells.

In the data set listed under Homo sapiens, `CC(CCc1ccccc1)NCC(O)c1ccc(O)c(C(N)=O)c1` (stereo not drawn) [LABETALOL] returned a CLH of 18.1 mL/min/kg. Moreover, in data set [7], the logP – broadly, the decadic logarithm of the partition coefficient of the neutral form, usually between octanol and water – is 1.2. In addition, the values for the fraction unbound in the data set “in vitro [1]” (human hepatocytes) and in the data set “in vitro [2]” were 0.961 and 0.32, respectively. The results for the intrinsic metabolic clearance (hepatocyte CLint) in “in vitro [5]” (cryopreserved HepaRG cells) and in the data set “in vitro [6]” (cryopreserved hepatocytes) were 7.47 µL/min/1e6 cells and 21.6 µL/min/1e6 cells, respectively. Also, the CLint scaled in the data set “in vitro [3]” worked out at 450 mL/min/kg.
